For test [1], the target named is T1, human neurokinin 2 (NK2) receptor (Homo sapiens, UniProt P21452).
T1 construct: expressed in transfected cells; host or cells: Chinese hamster ovary (CHO) cells, membranes
T1 sequence (P21452 1-398): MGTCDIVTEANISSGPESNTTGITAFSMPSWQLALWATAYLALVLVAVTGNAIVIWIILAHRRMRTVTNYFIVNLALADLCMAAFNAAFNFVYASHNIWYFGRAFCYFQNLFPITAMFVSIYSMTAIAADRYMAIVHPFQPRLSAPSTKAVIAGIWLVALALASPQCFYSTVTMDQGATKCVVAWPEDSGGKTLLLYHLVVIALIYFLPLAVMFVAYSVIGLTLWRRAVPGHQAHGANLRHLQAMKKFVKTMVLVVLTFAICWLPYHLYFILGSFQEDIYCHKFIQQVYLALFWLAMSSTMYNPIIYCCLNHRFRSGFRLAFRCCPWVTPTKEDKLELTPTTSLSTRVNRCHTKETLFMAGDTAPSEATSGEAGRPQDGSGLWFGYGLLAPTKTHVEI
Put plainly: Neurokinin receptor binding assay, NK2 ([3H]-Neurokinin A). Conditions: for inhibition at 1 µM: read-out: % Inhibition NK2 (1 μM dose). On the procedure:
(§1) Chinese Hamster ovary (CHO) cells transfected with the coding regions for the human neurokinin 1 (NK1) of the human neurokinin 2 (NK2) receptors are grown in Dulbecco's minimal essential medium supplemented with 10% fetal calf serum, 0.1 mM non-essential amino acids, 2 mM glutamine, 100 units/ml of penicillin and streptomycin, and 0.8 mg of G418/ml at 37° C. in a humidified atmosphere containing 5% CO2.
(§2) Cells are detached from T-175 flasks with a sterile solution containing 5 mM EDTA in phosphate buffered saline. Cells are harvested by centrifugation and washed in RPMI media at […] for 5 minutes. The pellet is resuspended in Tris-HCl (pH7.4) containing 1 μM phsphoramidon and 4 ug/ml of chymostatin at a cell density of 30×10^6 cells/ml. The suspension is then homogenized in a Brinkman Polytron (setting 5) for 30-45 seconds. The homogenate is centrifuged at 800×g for 5 min at 4° C. to collect unbroken cells and nuclei. The supernatant is centrifuged in a Sorvall RC5C at 19,000 rpm ([…]) for 30 min at 4° C. The pellet is resuspended, an aliquot is removed for a protein determination (BCA) and washed again. The resulting pellet is stored at -80° C.
(§3) To assay receptor binding, 50 μl of [^3 H]-Substance P (9-Sar, 11-Met) (specific activity 41 Ci/mmol) (Dupont-NEN) (0.8 nM for the NK-1 assay) or [^3 H]-Neurokinin A (specific activity 114 Ci/mmole) (Zenca) (1.0 nM for the NK-2 assay) is added to tubes containing buffer (50 mM Tris-HCl (pH 7.4) with 1 mM MnCl2 and 0.2% Bovine Serum Albumin) and either DMSO or test compound. Binding is initiated by the addition of 100 μl of membrane (10-20 μg) containing the human NK-1 or NK-2 receptor in a final volume of 200 μl. After 40 minutes at room temperature, the reaction is stopped by rapid filtration onto Whatman GF/C filters which have been presoaked in 0.3% polyethyleneimine. Filters are washed 2 times with 3 ml of 50 mM Tris-HCl (pH7.4). Filters are added to 6 mls of Ready-Safe liquid scintillation cocktail and quantified by liquid scintillation spectrometry in a LKB 1219 RackBeta counter. Non-specific binding is determined by the addition of either 1 μM of CP-99994 (NK-1) or 1 μM SR-48968 (NK-2) (both synthesized by the chemistry department of Schering-Plough Research Institute). IC50 values are determined from competition binding curves and Ki values are determined according to Cheng and Prusoff using the experimentally determined value of 0.8 nM for the NK-1 receptor and 2.4 nM for the NK-2 receptor.
(§4) % Inhibition is the difference between the percent of maximum specific binding (MSB) and 100%. The percent of MSB is defined by the following equation, wherein "dpm" is disintegrations per minute: [formula]

Test [2] addresses T2, human neurokinin 1 (NK1) receptor (Homo sapiens, UniProt P25103).
T2 construct: expressed in transfected cells; host or cells: Chinese hamster ovary (CHO) cells, membranes
Nature of the test: Neurokinin receptor binding assay, NK1 ([3H]-Substance P). Conditions: for inhibition at 1 µM: read-out: % Inhibition NK1 (1 μM dose). How it is done:
as §1, §2, §3, §4

The mark [3] stands for this setting: CHO membranes, human NK-1 receptor, [3H]-Substance P 0.8 nM, Cheng-Prusoff, read-out: Ki (NK1).
[4] abbreviates: CHO membranes, human NK-2 receptor, [3H]-Neurokinin A 1.0 nM, Cheng-Prusoff, read-out: Ki (NK2).

Read-outs that look alike come from different tables or passages of the source.

T2 sequence (P25103 whole entry): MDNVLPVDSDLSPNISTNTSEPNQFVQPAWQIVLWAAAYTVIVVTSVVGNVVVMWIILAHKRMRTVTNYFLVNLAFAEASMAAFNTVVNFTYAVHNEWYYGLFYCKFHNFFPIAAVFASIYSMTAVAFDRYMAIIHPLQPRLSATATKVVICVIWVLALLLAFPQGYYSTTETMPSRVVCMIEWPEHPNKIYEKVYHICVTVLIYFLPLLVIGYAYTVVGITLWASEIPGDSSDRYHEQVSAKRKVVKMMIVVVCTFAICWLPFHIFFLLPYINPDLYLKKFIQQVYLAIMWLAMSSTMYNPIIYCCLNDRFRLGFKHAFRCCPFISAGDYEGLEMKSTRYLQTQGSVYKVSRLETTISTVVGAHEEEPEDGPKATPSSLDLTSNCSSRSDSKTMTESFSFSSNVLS

What is called inhibition is the change of the read-out against control, counted positive when it falls. Take `COc1cc(C(=O)N(C)CC(CCN(C)CCc2c[nH]c3ccc(F)cc23)c2ccc(Cl)c(Cl)c2)cc(OC)c1OC` (racemic) [Example 7c]: the inhibition at 1 µM in test [1] was 100%.
Usually Ki stands for the equilibrium dissociation constant of an inhibitor or competing ligand from its target. For the compound `COc1cc(C(=O)N(C)CC(CCN(C)CCCc2c[nH]c3ccccc23)c2ccc(Cl)c(Cl)c2)cc(OC)c1OC` (stereo not shown) [Example 7b], the Ki was determined as 19 nM in test [2] (setting [3]) and 217 nM in test [1] (setting [4]).
For the compound `COc1cc(C(=O)N(C)CC(CCN[C@@H](Cc2c[nH]c3ccccc23)C(=O)O)c2ccc(Cl)c(Cl)c2)cc(OC)c1OC` (stereo partly shown) [Example 7d], the figures for the Ki in test [2] (setting [3]) and in test [1] (setting [4]) were 233 nM and 30 nM, respectively.
In the case of `Cc1cc(C(=O)N(C)CC(CCN(C)CCc2c[nH]c3ccccc23)c2ccc(Cl)c(Cl)c2)cc(Cl)n1` (stereo not shown) [Example 12c], in test [2], the Ki is 103 nM and the inhibition at 1 µM came to 82%. For the same compound, in test [1], the affinity corresponds to a Ki of 39 nM and the inhibition at 1 µM came out at 93%.
In the case of `CN(CCc1c[nH]c2ccccc12)CCC1(c2ccc(Cl)c(Cl)c2)CCN(C(=O)c2cc(C(F)(F)F)cc(C(F)(F)F)c2)C1` (stereo not shown) [Example 14b], in test [2], the Ki stood at 21 nM and the inhibition at 1 µM came to 81%. Moreover, in test [1], the affinity, expressed as Ki, was 143 nM and the inhibition at 1 µM is 88%.
